Results taken from patent US20130281400A1, “Metabolic Downregulation for Cell Survival” (Wake Forest University Health Sciences, priority 2010, published 2013).

Experiments:
[1] = system: C2C12 cells, murine myoblasts; test: MTS assay of metabolic activity of viable cells under hypoxia (0.1% O2) with daily adenosine; format: cell-based
Method: 500 μL of a cell suspension (C2C12 cells, murine myoblasts) in high glucose Dulbecco's modified Eagle's medium (DMEM, Gibco) containing 10% FBS, 500 U/mL penicillin and 500 μg/mL streptomycin was placed in each well of a 48-well culture plate at a density of 1052 (FIG. 2) and 2105 (FIG. 3) cells/cm^2. Cells were incubated for 24 hr in normoxic conditions (21% O2, 37° C.) prior to placement in a hypoxic chamber. At day 0, the plates designated as the hypoxic group were transferred to the hypoxic chamber (0.1% O2). […] Another group receiving daily doses of adenosine ([…], achieved by serial dilution) was incubated for up to 7 days under hypoxia and then placed back into normoxic conditions without additional supply of adenosine. Adenosine was refreshed by the daily exchange of media in which adenosine was completely dissolved. Media to be used under hypoxia was placed in the hypoxic chamber 24 hr prior to use for deoxygenation down to 2% O2. The metabolic activity of viable cells at each pre-determined time point was assessed using an MTS assay, which measures mitochondrial activity of cells. Adenosine was used with C2C12 at passage 17, the murine myoblast cell lines, because of their relatively high metabolic activity and proliferation rate. […] Based on the microscopic observations of these cell stained with Giemsa, it was not seen that whole population of cells completely reached the state of necrosis up to the latest time point tested, as a few populations of attached cells were still observed. It is expected that those remaining cells eventually die. […] The effect of dose was also evaluated on a degree of cellular activity (FIG. 3). […] Based on this outcome, the minimum effective concentration of adenosine appears to be about 1 mM under this experimental condition. The reason for 1 mM treated cells not declining up to the duration tested may potentially have been the lower starting number of cells. […] Finally, the long term effect of adenosine was tested on resuming its proliferation after its supply is stopped. The duration tested under the effect of adenosine was 22 days, as the angiogenesis process is known to take 2-3 weeks (Cotton, 1996, Trends Biotechnol, 14(5):158-62; […] et al., 1996, Biomaterials, 17(3):277-84) for completion.

muscle tissue = test: adenosine injected into muscle tissue; format: in vivo
Text: Adenosine, a nucleoside known for its function as an energy transferring molecule, is also known to function as a modulator of hypoxia-induced ion-channel arrest, which eventually leads to lowering of ATP consumption, and thus oxygen demand. Moreover, it is also known to stimulate angiogenesis. Thus, the present invention provides for the application of adenosine to cell-seeded scaffolds under the hypoxic condition to improve cell survival rate via the downregulation of metabolic rate, and thus lowering oxygen demand and consumption. As contemplated herein, agonists to adenosine may also be used in a similar manner to lower the oxygen demand of cells and tissues. […] Adenosine may be administered alone as a composition or within a formulation, as would be understood by those skilled in the art.

Nc1ncnc2c1ncn2[C@@H]1O[C@H](CO)[C@@H](O)[C@H]1O [adenosine]
cellular metabolic activity pattern at 1 mM adenosine ([1]; 1 mM adenosine, hypoxia, FIG. 3): showed a similar pattern with the cells grown in the hypoxic condition without supply of adenosine
long term effect: resuming proliferation after adenosine supply is stopped ([1]; 22 days under the effect of adenosine, various doses, FIG. 4): still demonstrated the ability to restore its normal proliferation rate
cellular (metabolic) activity under hypoxic conditions ([1]; C2C12 passage 17, hypoxia 0.1% O2, daily adenosine up to 7 days, FIG. 2): maintained a steady state of cellular activity
effect of dose on degree of cellular activity ([1]; adenosine dose increased from 1 to 10 mM, hypoxic conditions, FIG. 3): an escalation of steady hypometabolic state was maintained under hypoxic conditions
resumption of normal metabolic activity after removal of adenosine ([1]; adenosine removed at day 7, cells returned to normoxic conditions, FIG. 2): resumed their normal metabolic activity two days after adenosine was removed at day 7
minimum effective concentration of adenosine ([1]; hypoxic conditions, dose study, FIG. 3): about 1 mM
cellular viability and tissue architecture (muscle tissue): preservation of cellular viability and tissue architecture
